Measured values published in the METLIN SMRT retention time set (Domingo-Almenara et al. 2019).

experiment: gradient 5% acetonitrile 3 min, to 50% in 2 min, to 85% in 15 min, held 3 min, 100 µL/min; settings: column: Zorbax Extend-C18 2.1 x 50 mm; eluents: water / acetonitrile, 0.1% formic acid
In short: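 Pure standards were run in mixtures of ~100 molecules by HPLC coupled to a quadrupole time-of-flight mass spectrometer. The column was a Zorbax Extend-C18 (2.1 × 50 mm, 1.8 μm) at 100 μL/min, with water and acetonitrile each containing 0.1% formic acid, in positive and negative ionization mode. Dead and dwell volumes were 40 μL and 900 μL. Retention time was taken from computationally picked adduct peaks, each manually inspected, with data collected over 3 months.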

| RP-LC retention time [s] | SMILES |
| --- | --- |
| 941 | CCCOc1ccc(Nc2nc(C(=O)OCC)nc3ccccc23)cc1 |
| 805 | CC(C)C(=O)Nc1nc2cc(NC(=O)C3CCN(S(=O)(=O)N4CCCC4)CC3)ccc2s1 |
| 1060 | COC(=O)c1cc(-c2c[nH]cc2C(=O)OCc2ccccc2)cn1S(=O)(=O)c1ccc(C)cc1 |
| 738 | COc1ccc(-c2cn3cccnc3n2)cc1NC(=O)c1ccc(Br)cc1 |
| 794 | CCc1ccc(NS(=O)(=O)c2ccc3c(c2)CCCC(=O)N3)cc1 |
| 911 | CCN1C(=O)c2ccccc2Oc2ccc(C(=O)NCc3cccs3)cc21 |
| 762 | Clc1ccc(-c2ccc(CNCc3ccc4c(c3)OCO4)o2)cc1 |
| 817 | CCOC(=O)CC(=O)Nc1nnc(SCc2nnc(-c3ccccc3C)o2)s1 |
| 642 | CCC(=O)N1CCc2cc(C(=O)NCC3CCCO3)ccc21 (centres undefined) |
| 835 | CCN1c2cc(F)ccc2C(=O)NC12CCN(C(=O)c1ccccc1C)CC2 |
| 978 | Cc1cccc(OCCc2noc(C3CCN(S(=O)(=O)N(C)C)C3)n2)c1 (centres undefined) |
| 614 | CC(C)CCNC(=O)N1CCN(Cc2nc3cc(C(=O)N(C)C)ccc3o2)CC1 |
| 851 | COc1ccc(S(=O)(=O)N2CC(F)(F)C[C@H]2c2nc(C)no2)cc1 |
| 850 | CN(C(=O)c1ccc(F)cc1C(F)(F)F)C1CCN(c2nnc(-c3ccnn3C)c3ccccc23)CC1 |
| 1190 | Cc1ccc(NC(=O)c2nc(C(C)C)oc2C)c(C)c1 |
| 901 | COC(=O)c1cc(S(=O)(=O)N2CCCC2C(=O)Nc2cc(C)ccc2C)cn1C (centres undefined) |
| 922 | CCc1cccc(NC(=O)COc2cc(C)nc(N3CCN(c4ccccc4)CC3)n2)c1 |
| 715 | CCN1CCn2cc(S(=O)(=O)Nc3cc(F)ccc3F)cc2C1=O |
| 776 | COC(=O)c1ccc(NC(=O)Cn2ccc3ccc(-c4nnc(C)o4)cc32)cc1 |
| 701 | CCN1C(=O)c2cccnc2Sc2cc(CNC(=O)c3ccco3)ccc21 |
| 865 | COc1ccc2[nH]cc(CCNC(=O)c3ccc(SC)cc3OC)c2c1 |
| 644 | Cc1cc(NCCOCCO)n2nc(-c3ccc(Cl)cc3)c(C)c2n1 |

| RP-LC retention time [s] | SMILES |
| --- | --- |
| 906 | CC(NC(=O)C1CCN(C(=O)N2CCOc3ccc(Cl)cc32)CC1)c1ccccc1 (centres undefined) |
| 855 | Cc1ccc(C)c(C(=O)N2CCC3(CC2)N=C(c2ccccc2)NO3)c1 |
| 1340 | Cc1ccccc1-c1noc(C2CCCN2S(=O)(=O)c2ccc(C(C)C)cc2)n1 (centres undefined) |
| 780 | CCOc1cc(C(=O)Nc2cc(-c3cn4cccnc4n3)ccc2C)cc(OCC)c1OCC |
| 878 | CC1CCN(S(=O)(=O)N2CCC(C(=O)N3CCCC(c4nc(C5CCOCC5)no4)C3)CC2)CC1 (centres undefined) |
| 602 | Cc1nc2c(c(=O)n1CC(=O)NC1CCCC1)CCN(Cc1ccccc1)C2 |
| 596 | O=C(c1ccco1)N1CCCC(c2nn[nH]n2)C1 (centres undefined) |
| 1240 | O=S(=O)(c1cc(-c2noc(C3CCCC3)n2)cs1)N1CCCCC1 |
| 634 | CCN1C(=O)CN(C(=O)CC(C)C)CC12CCOCC2 |
| 784 | COc1ccc(CCC(=O)N2CCC(n3nnc4cc(F)ccc4c3=O)CC2)cc1 |
| 768 | COc1ccc(-c2nc3cnccn3c2Nc2ccc(F)cc2)cc1OC |
| 1060 | CCCCCNC(=O)C1CCCN(c2ncc(-c3ccc(F)cc3)cn2)C1 (centres undefined) |
| 971 | Cn1c(=O)c(N2CCC(NC(=O)Nc3ccc(F)c(Cl)c3)CC2)nc2ccccc21 |
| 586 | COC(=O)c1cnc2nc(C)ccc2c1Nc1ccc(S(N)(=O)=O)cc1 |
| 702 | COc1ccc(-c2cc(N3CCC(NC(=O)c4ccc(N(C)C)cc4)C3)n[nH]2)cc1 (centres undefined) |
| 682 | COCCC(=O)N1CCCn2nc(-c3cccs3)cc2C1 |
| 642 | Cc1ncoc1C(=O)N1CCC(c2noc(-c3ccncc3)n2)C1 (centres undefined) |
| 940 | Cn1c(=O)n(C)c2cc(S(=O)(=O)C3CCCCC3)c(NC(=O)c3ccccc3F)cc21 |
| 950 | COc1cccc(-c2nc(N3CCCCC3)ncc2C(=O)O)c1 |
| 926 | CC(NC(=O)C1(c2ccc(NS(C)(=O)=O)cc2)CCCCC1)c1ccccc1 (centres undefined) |
| 899 | Cc1ccccc1C(=O)Nc1ccc(C(=O)N2CCCC(O)c3cc(Cl)ccc32)c(C)c1 (centres undefined) |
| 612 | O=C(O)c1nnn(-c2ccc3c(c2)OCO3)c1-c1ccncc1 |

| RP-LC retention time [s] | SMILES |
| --- | --- |
| 659 | CCNc1cc(N2CCCC(CCC(=O)Nc3ccc(OC)cc3)C2)ncn1 (centres undefined) |
| 1020 | O=C(C1CCN(S(=O)(=O)c2ccc(-c3noc(-c4cccc(F)c4)n3)cc2)CC1)N1CCCC1 |
| 657 | Cc1cc(NC(=O)CSc2nnc(CNC(=O)c3c(F)cccc3Cl)o2)no1 |
| 794 | O=c1oc2cc(O)c(Cl)cc2c2c1CCC2 |
| 660 | COc1ccc(C2(CNC(=O)CCc3c(C)noc3C)CCOCC2)cc1 |
| 700 | O=C(C1CCN(S(=O)(=O)N2CCOCC2)CC1)N1CCCC(c2nc(C3CCOCC3)no2)C1 (centres undefined) |
| 611 | Cc1nc(COc2ccccc2)sc1C(=O)NCCN(C)C |
| 717 | Cc1ccc2oc(-c3noc(C(=O)NCCCN4CCCC4)n3)c(C)c2c1 |
| 1050 | CCc1ccccc1NC(=O)Cn1nc2cc(C)nc(Nc3ccccc3)n2c1=O |
| 802 | COc1cccc(CC(=O)N2CCC3(CC2)N=C(c2ccccc2)NO3)c1 |
| 794 | CCCNC(=O)CCc1nc2ccccc2n(CC(=O)NCc2ccccc2Cl)c1=O |
| 625 | COc1cccc(CNC(=O)N2CCc3nc[nH]c3C2)c1 |
| 1090 | Cc1ccccc1Cc1nc(C2CC(=O)N(c3ccc(F)c(Cl)c3)C2)no1 (centres undefined) |
| 681 | Cc1cnc(CNC(=O)c2c(=O)c3ccc(N4CCCN(C)CC4)nc3n3c2sc2ccccc23)cn1 |
| 1330 | CCOc1nc2ccccc2nc1N1CCCC(C(=O)N2CCN(c3ccccc3F)CC2)C1 (centres undefined) |
| 676 | COc1ccc(C(=O)Nc2cccn3cnnc23)cc1F |
| 808 | O=C(NCc1ccco1)c1c2c(nc3ccccc13)C(=O)N(C1CCCCC1)C2 |
| 711 | Cc1ccc(NC(=O)Cn2cnc3nc(N4CCCC(C(=O)NC(C)C)C4)sc3c2=O)cc1 (centres undefined) |
| 803 | COc1ccc(OC)c(NC(=O)N2CCC(CC(=O)NCc3ccc(F)cc3)CC2)c1 |
| 771 | COCCN1C(=O)CCc2cc(NS(=O)(=O)c3ccc(Cl)cc3)ccc21 |
| 984 | O=C(NCCC1=CCCCC1)c1nnc(-c2ccc(S(=O)(=O)N3CCOCC3)cc2)o1 |
| 864 | CCC(C(=O)NCCc1ccco1)n1c2ccccc2c2cnn(C)c(=O)c21 (centres undefined) |

| RP-LC retention time [s] | SMILES |
| --- | --- |
| 807 | O=C(Nc1ccc(F)c(Cl)c1)C1CCc2sc(C(=O)N3CCOCC3)cc2C1 (centres undefined) |
| 731 | O=C(O)c1cccc2c1CCN2C(=O)c1ccccc1 |
| 795 | CCC(C)C(=O)N1CCCN(C2=NS(=O)(=O)C(c3ccc(F)cc3)=C2C)CC1 (centres undefined) |
| 691 | COc1cccc(C(O)CN2CCN(c3ccccc3C)CC2)c1 (centres undefined) |
| 690 | O=C(NCCn1ncccc1=O)c1ccc(OCc2nc(-c3ccco3)cs2)cc1 |
| 655 | CCOC(=O)C1=C(CN2CCc3ccccc3C2)NC(=O)NC1c1cccs1 (centres undefined) |
| 762 | COCCOc1ccc2c(n1)CCN(C(=O)NCCC(C)C)C2 |
| 1010 | Cc1cc(OC(C)C(=O)N(Cc2ccco2)C2CCS(=O)(=O)C2)cc(C)c1Cl (centres undefined) |
| 916 | COC(=O)c1nnn(-c2ccc(C)c(C)c2)c1C(=O)OC |
| 569 | Cc1nc(N2CCN(c3ccccn3)CC2)c2c3c(sc2n1)CCC3 |
| 885 | COc1ccc(Cl)cc1NC(=O)CSc1nnc(-c2ccco2)n1-n1cccc1 |
| 871 | CC1(C(=O)NCc2ccc(F)cc2)CCN(C(=O)Nc2ccccc2Br)CC1 |
| 882 | Cn1cc(-c2cc3n(n2)CCC(=O)N3CC(=O)NC2CCCc3ccccc32)c2ccccc21 (centres undefined) |
| 917 | O=C(NC1CCCCCC1)c1nnc(-c2ccc(S(=O)(=O)N3CCOCC3)cc2)o1 |
| 731 | C=CCNC(=O)C1CCCN(C(=O)Nc2ccc(NC(=O)Nc3ccccc3F)cc2)C1 (centres undefined) |
| 622 | CCCN(C)C(=O)C1CCCCc2nnc(C(C)C)n21 (centres undefined) |
| 585 | O=C(O)C1CCN(S(=O)(=O)C2CC2)CC1 |
| 782 | COCCNC(=O)COc1nc(C)nc2onc(-c3ccc(F)cc3)c12 |
| 1090 | CC(C)Oc1ccc(-c2noc(Cn3c(=O)n(-c4cccc(F)c4)c(=O)c4sccc43)n2)cc1 |
| 687 | CCOC(=O)C1=C(CN2CCC(c3ccccc3)C2)NC(=O)NC1c1cccc(OC)c1OC (centres undefined) |

| SMILES | RP-LC retention time [s] |
| --- | --- |
| CCOCCCNC(=O)N1[C@H]2CC[C@@H]1c1cnc(-c3ccc(F)cc3)nc1C2 | 800 |
| Cc1ccc(C)c(S(=O)(=O)N2[C@H]3CC[C@@H]2c2cnc(-c4ccc(F)cc4)nc2C3)c1 | 1270 |
| O=C(C1CCN(c2nnc(-c3ccccc3)o2)CC1)N1CCC2(CC1)OCCO2 | 701 |
